Legend:
[1] = target: T1, E. coli pNAPT-7 cell lysate (Bacillus subtilis, UniProt Q59248); test: hydrolysis of ester substrates by E. coli pNAPT-7 cell lysate (Example 13); type: biochemical, Bacillus subtilis Thai I-8; conditions: for enzyme activity on substrate: 25° C., 0.1 MOPS pH 7.5, 0.3 mg ester/ml, 2% Tween, 1 mg/ml BSA, 2 hours
T1 construct: ammonium sulphate-precipitated, ultrafiltered lysate; about 31 kDa, untagged wild type
Method: The E. coli pNAPT-7 cell lysate after ammonium sulphate precipitation and ultrafiltration was tested on the hydrolysis of the ethyl ester of R and S-ibuprofen.
The enzyme activity was assayed at 25° C. in 0.1 MOPS buffer pH 7.5 with 0.3 mg of R or S-ibuprofen ethyl ester/ml, 2% Tween and 1 mg/ml BSA. After 2 hours incubation the reaction was stopped by the addition of acetonitrile.
The reaction mixture was analyzed on a HPLC-reversed phase column (Chrompack Polygosil 60D-10CN, 250×4.6 mm), eluted with 34% acetonitrile, 0.05M phosphoric acid pH 3.0 at a flow rate of 1.5 ml/min. Retention times for R and S-ibuprofen and the ethyl ester of R and S-ibuprofen were 5.98 minutes and 11.08 minutes respectively.

[2] = S-enantiomer vs antipode; cited from earlier work

T1 sequence (Q59248 entry or part of it): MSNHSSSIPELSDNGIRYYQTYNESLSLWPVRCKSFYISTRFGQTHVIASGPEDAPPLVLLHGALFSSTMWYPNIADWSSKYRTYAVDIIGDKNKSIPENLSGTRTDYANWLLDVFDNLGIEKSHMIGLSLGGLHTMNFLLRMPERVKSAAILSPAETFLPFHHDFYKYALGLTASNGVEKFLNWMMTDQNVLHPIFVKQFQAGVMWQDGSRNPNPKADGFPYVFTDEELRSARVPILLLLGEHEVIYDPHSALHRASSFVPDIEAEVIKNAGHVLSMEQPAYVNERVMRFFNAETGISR

Row | Compound | enzyme activity on substrate [1] [u/l] | S-specificity ([1]; Table 12, ibuprofen ethyl ester) [%] | hydrolysis relative to the hydrolysing activity of the methyl ester of S-naproxen ([1]; tested under the same conditions) [%] | in vitro anti-inflammatory activity of the S-enantiomer relative to its antipode [2]
1 | CCOC(=O)[C@H](C)c1ccc(CC(C)C)cc1 [R-ibuprofen ethyl ester, ethyl 2-(4-isobutyl-1-phenyl) propionate] | 1865 |  |  | 
2 | CCOC(=O)[C@@H](C)c1ccc(CC(C)C)cc1 [S-ibuprofen ethyl ester, ethyl 2-(4-isobutyl-1-phenyl) propionate] | 39600 | 95.3 | 60 | 
3 | COC(=O)[C@@H](C)c1ccc2cc(OC)ccc2c1 [S-naproxen methyl ester, methyl 2-(6-methoxy-2-naphthyl) propionate] | 65000 |  |  | 
4 | CC(C)Cc1ccc([C@H](C)C(=O)O)cc1 [ibuprofen, 2-(4-isobutyl-1-phenyl) propionic acid] |  |  |  | up to 150 times
5 | COc1ccc2cc([C@H](C)C(=O)O)ccc2c1 [naproxen, 2-(6-methoxy-2-naphthyl) propionic acid] |  |  |  | up to 150 times
